Columns and labels:
[1] = tested on: HT-29 xenografts (human CRC tumor cell line); test: in vivo tumor xenograft experiment, subcutaneous HT-29 xenografts (Example A); conditions: nude mice, suboptimal doses, 28 days of treatment
Experimental: In order to analyse the anti-tumor effects of combining the inhibition of tumor angiogenesis by interfering with the VEGFR, FGFR and PDGFR signalling cascades with the established anti-proliferative treatment modality of capecitabine (Xeloda®) in a xenograft model of CRC the following in vivo experiment is performed. Nude mice carrying established subcutaneous HT-29 xenografts (human CRC tumor cell line) are randomized and treated with either nintedanib or capecitabine alone or with the combination of both drugs. After 28 days of treatment the tumors on the control treated mice reach the endpoint and are in average […] in volume. […] TGI = (1−(Xtreated,final−Xtreated,day1)/(Xcontrol,final−Xcontrol,day1))*100% [formula] where X = mean tumor weigh, final is day 28
The weight gain of the mice in the treatment groups in comparison to the weight of the control mice is reduced, but nevertheless well tolerated.

[2] = in adults; cited from earlier work
[3] = tested on: HT-29; test: in vivo anti-tumor efficacy, HT-29 xenograft model; conditions: Colorectal, HT-29, 100mg/kg/d
[4] = tested on: HT-29 large tumors; test: in vivo anti-tumor efficacy, HT-29 large tumors xenograft model; conditions: Colorectal
[5] = tested on: GS-9L; test: in vivo anti-tumor efficacy, GS-9L syngeneic rat tumor model; conditions: Glioblastoma, 50mg/kg/d
[6] = tested on: FaDu; test: in vivo anti-tumor efficacy, FaDu xenograft model; conditions: Head and neck, 100mg/kg/d
[7] = tested on: NCI-H460; test: in vivo anti-tumor efficacy, NCI-H460 xenograft model; conditions: Lung (non-small-cell), NCI-H460, 25mg/kg/d
[8] = tested on: Calu-6; test: in vivo anti-tumor efficacy, Calu-6 xenograft model; conditions: Lung (non-small-cell), Calu-6, 50mg/kg/d
[9] = tested on: SKOV3; test: in vivo anti-tumor efficacy, SKOV3 xenograft model; conditions: Ovarian, SKOV3, 50mg/kg/d
[10] = tested on: PAC-120; test: in vivo anti-tumor efficacy, PAC-120 xenograft model; conditions: Prostate (hormone-dependent), PAC-120, 100mg/kg/d
[11] = tested on: Caki-1; test: in vivo anti-tumor efficacy, Caki-1 xenograft model; conditions: Renal, Caki-1, 100mg/kg/d
[12] = tested on: Rip-Tag; test: in vivo anti-tumor efficacy, Rip-Tag murine transgenic pancreas model

Compound | TGI value [1] | AUC [2] | Cmax [2] | bioavailability [2] | T/C [3] | Efficacy [4] | T/C [5] | T/C [6] | T/C [7] | T/C [8] | T/C [9] | T/C [10] | T/C [11] | Efficacy [12]
CCCCCOC(=O)Nc1nc(=O)n([C@@H]2O[C@H](C)[C@@H](O)[C@H]2O)cc1F [capecitabine, 5'-deoxy-5-fluoro-N-[(pentyloxy)carbonyl]-cytidine] | 50% | 5960 ng·h/mL | 3900 ng/mL | ≈ 100% |  |  |  |  |  |  |  |  |  | 
COC(=O)c1ccc2c(c1)NC(=O)/C2=C(\Nc1ccc(N(C)C(=O)CN2CCN(C)CC2)cc1)c1ccccc1 [nintedanib, 3-Z-[1-(4-(N-((4-methyl-piperazin-1-yl)-methylcarbonyl)-N-methyl-amino)-anilino)-1-phenyl-methylene]-6-methoxycarbonyl-2-indolinone] | 35% |  |  |  | T/C 16% @ 100mg/kg/d | tumor volume reduction | T/C 32% @ 50mg/kg/d | T/C 11% @ 100mg/kg/d | T/C 54% @ 25mg/kg/d | T/C 24% @ 50mg/kg/d | T/C 19% @ 50mg/kg/d | T/C 34% @ 100mg/kg/d | T/C 13% @ 100mg/kg/d | interference with tumor formation
